Experimental findings from ChEMBL document CHEMBL1126897, “Tyrphostins. 3. Structure-activity relationship studies of alpha-substituted benzylidenemalononitrile 5-S-aryltyrphostins” (J Med Chem, 1993) are described below.

The target in experiment [1] is T1, Epidermal growth factor receptor (Homo sapiens, UniProt P00533). As to the kind of experiment: Inhibitory concentration against EGF receptor by polyGAT phosphorylation.
Experiment [2] deals with T1, Epidermal growth factor receptor. As to the kind of experiment: Inhibitory concentration against EGF receptor by autophosphorylation.
The target is the same in experiment [3]. As to the kind of experiment: Inhibition of polyGAT phosphorylation by EGF receptor.

T1 sequence (P00533 whole entry): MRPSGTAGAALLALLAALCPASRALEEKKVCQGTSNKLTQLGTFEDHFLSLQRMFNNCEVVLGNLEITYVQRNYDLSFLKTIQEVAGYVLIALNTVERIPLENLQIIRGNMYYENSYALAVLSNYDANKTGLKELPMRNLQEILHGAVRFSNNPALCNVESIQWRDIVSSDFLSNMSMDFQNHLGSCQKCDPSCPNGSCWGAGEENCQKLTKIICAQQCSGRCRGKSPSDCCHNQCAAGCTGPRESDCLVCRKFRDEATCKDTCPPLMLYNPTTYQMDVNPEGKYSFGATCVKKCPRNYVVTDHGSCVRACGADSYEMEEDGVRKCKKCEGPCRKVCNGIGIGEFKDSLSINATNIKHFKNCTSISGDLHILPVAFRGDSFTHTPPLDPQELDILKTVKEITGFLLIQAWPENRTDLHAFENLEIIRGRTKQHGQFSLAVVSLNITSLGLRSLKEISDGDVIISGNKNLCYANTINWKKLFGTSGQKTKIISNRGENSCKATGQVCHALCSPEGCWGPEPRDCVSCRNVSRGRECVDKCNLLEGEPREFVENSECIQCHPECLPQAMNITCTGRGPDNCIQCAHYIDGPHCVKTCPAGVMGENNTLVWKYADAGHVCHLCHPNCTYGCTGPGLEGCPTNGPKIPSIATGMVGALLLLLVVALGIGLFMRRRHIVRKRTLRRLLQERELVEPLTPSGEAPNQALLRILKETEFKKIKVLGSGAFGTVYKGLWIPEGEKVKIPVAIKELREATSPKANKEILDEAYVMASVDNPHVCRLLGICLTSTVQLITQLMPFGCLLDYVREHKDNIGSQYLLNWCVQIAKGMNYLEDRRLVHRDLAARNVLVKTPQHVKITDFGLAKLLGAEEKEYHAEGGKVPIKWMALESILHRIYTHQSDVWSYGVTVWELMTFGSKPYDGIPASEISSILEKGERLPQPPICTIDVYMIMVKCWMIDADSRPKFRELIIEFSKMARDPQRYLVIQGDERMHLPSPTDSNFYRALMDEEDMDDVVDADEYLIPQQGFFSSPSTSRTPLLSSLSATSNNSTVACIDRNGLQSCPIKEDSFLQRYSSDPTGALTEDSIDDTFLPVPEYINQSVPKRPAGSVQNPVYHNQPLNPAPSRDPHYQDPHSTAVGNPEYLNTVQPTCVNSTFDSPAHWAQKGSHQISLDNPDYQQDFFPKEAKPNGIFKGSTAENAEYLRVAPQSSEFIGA

Turning to `COc1cc(/C=C(\C#N)C(N)=O)cc(CSc2nc3cc(Cl)ccc3s2)c1O`, the IC50 in experiment [1] is 4.4 µM; in experiment [2] it was greater than 83 µM. Regarding `COc1cc(/C=C(\C#N)C(N)=O)cc(CSCc2ccc(Cl)cc2)c1O`, the 50% inhibitory concentration (IC50) in experiment [1] came to 14.8 µM; in experiment [2], 16 µM. The corresponding values for `COc1cc(/C=C(\C#N)C(N)=O)cc(CSCc2ccccc2Cl)c1O` are 2.5 µM and 1 µM. As for `CCOc1ccc2nc(SCc3cc(/C=C(\C#N)C(N)=O)cc(OC)c3O)sc2c1`, the IC50 in experiment [2] was greater than 167 µM; in experiment [3] it was greater than 100 µM. As for `COc1cc(C=C(C#N)C#N)cc(CS(=O)(=O)c2ccc(C)cc2)c1O`, the concentration for half-maximal inhibition (IC50) in experiment [1] worked out at 85 µM; in experiment [2] it was 23 µM. The corresponding values for `COc1cc(C=C(C#N)C#N)cc(CSc2ccccc2)c1O` are 370 µM and 6.7 µM. For the compound `N#C/C(=C\c1cc(O)c(O)c(CSc2nc3ccccc3s2)c1)C(N)=O`, the results for the IC50 in experiment [1] and in experiment [2] were 6.5 µM and 3.2 µM, respectively. With `COc1cc(/C=C(\C#N)C(N)=O)cc(CSc2nc3ccccc3[nH]2)c1O`, the IC50 in experiment [1] worked out at 75 µM; in experiment [2] it was 14.5 µM. `N#C/C(=C\c1cc(O)c(O)c(CSCc2ccccc2)c1)C(N)=O`: the IC50 in experiment [1] was found to be 0.94 µM; in experiment [2], 0.64 µM. The like results for `COc1cc(/C=C(\C#N)C(N)=O)cc(CSc2ccc3ccccc3c2)c1O` were, in that order, 6.6 µM and 1.7 µM. As to `COc1cc(/C=C(\C#N)C(N)=O)cc(CSc2ccccc2NC(C)=O)c1O`, the values for the IC50 in experiment [1] and in experiment [2] were 5.6 µM and 22 µM, respectively. As to `Cc1cc(C=C(C#N)C#N)cc(O)c1O`, the IC50 in experiment [1] was 5.6 µM; in experiment [2], 62 µM. The like results for `COc1cc(C=C(C#N)C#N)cc(CSc2ccccc2C(=O)O)c1O` were, in that order, 36 µM and 8 µM.

For `COc1cc(/C=C(\C#N)C(N)=O)cc(CSc2ccccc2C(=O)O)c1O`, the IC50 was 37 µM in experiment [1] and 0.71 µM in experiment [2]. The like results for `COc1cc(/C=C(\C#N)C(=O)c2ccc(O)c(O)c2)cc(CSCc2ccccc2)c1O` were, in that order, 0.75 µM and 4.5 µM.

Take `COc1cc(C=C(C#N)C#N)cc(CSCC(=O)O)c1O`: the concentration for half-maximal inhibition (IC50) came to 96 µM in experiment [1] and 54 µM in experiment [2]. As for `COc1cc(/C=C(\C#N)C(N)=O)cc(CSc2ccc(O)cc2)c1O`, the IC50 in experiment [1] and in experiment [2] was 2.5 µM in each case. Regarding `COc1cc(/C=C(\C#N)C(N)=O)cc(CSc2ccccn2)c1O`, the figures for the IC50 in experiment [1] and in experiment [2] were 25 µM and 3.4 µM, respectively. As to `COc1cc(/C=C(\C#N)C(N)=O)cc(CSCCC(=O)O)c1O`, in experiment [3], the IC50 came out at 125 µM. With `COc1cc(C=C(C#N)C#N)cc(C)c1O`, the IC50 in experiment [1] was found to be 2600 µM; in experiment [2] it was 87 µM.

Regarding `COc1cc(/C=C(\C#N)C(N)=O)cc(CSc2nc3ccccc3o2)c1O`, the figures for the IC50 in experiment [1] and in experiment [2] were 12.5 µM and 5.3 µM, respectively. Regarding `COc1cc(/C=C(\C#N)C(N)=O)cc(CSc2ccccc2)c1O`, the results for the 50% inhibitory concentration (IC50) in experiment [1] and in experiment [2] were 2.9 µM and 0.4 µM, respectively. As to `COc1cc(/C=C(\C#N)C(N)=O)cc(CSCc2ccccc2)c1O`, the IC50 in experiment [1] worked out at 1.95 µM; in experiment [2], 0.9 µM.
